Columns and labels:
AMPA receptor = test: Patch clamp whole cell electrophysiology: glutamate-evoked steady state current in cultured hippocampal neurons; format: cell-based; conditions: 10 μM compound in extracellular solution; 0.5 mM glutamate; rat hippocampal neurons voltage clamped at −60 mV
Source text: The (pyrido/thieno)-[f]-oxazepin-5-one derivatives of the invention are AMPA receptor positive modulators, as can be determined by an increase in steady state current induced by application of glutamate in a conventional whole cell patch clamp method when a (pyrido/thieno)-[f]-oxazepin-5-one of the invention is present (see Example 10 and Table I). The compounds may be used in the treatment of neurological and psychiatric diseases where an enhancement of synaptic responses mediated by AMPA receptors is required, such as neurodegenerative disorders, cognitive or memory dysfunction, memory and learning disorders such as can result from ageing, attention disorder, trauma, stroke, epilepsy, Alzheimer's disease, depression, schizophrenia, psychotic disorders, sexual dysfunctions, autism, or a disorder or disease resulting from neurotic agents or substance abuse, and alcohol intoxication.
Hippocampal neuronal cultures were prepared from embryonic or 1-3 day old Sprague-Dawley rats which were decapitated and the heads immediately placed in ice cold HBS (HEPES Buffered Solution: 130 mM NaCl, 5.4 mM KCl, 10 mM HEPES, 1.0 mM MgCl2, 1.8 CaCl2, 25 mM glucose, adjusted to pH 7.4). The whole brain was excised and placed on pre-sterilised filter paper, soaked in HBS and the cerebellum was removed. The brain was chopped and an enzyme solution (0.5 mg/ml protease X and 0.5 mg/ml protease in HBS) was added and subsequently left for 40 minutes at room temperature to digest before trituration. Cells were resuspended and then counted to give a final concentration of 1.5×10^6 per ml. Cells were aliquoted onto poly-D-lysine- and Matrigel®-treated coverslips and left to incubate at 37° C. for 1-2 hours. When incubation was complete, 1 ml of growth medium was added to each well containing a coverslip and the cells were returned to the incubator. After 3-5 days the mitotic inhibitor cytosine arabinoside (5 μM) was added and the cells returned to the incubator until required.
The whole cell configuration of the patch clamp technique (Hamill et al., Pflügers Arch. 1981, 39, 85-100) was used to measure glutamate-evoked currents from postnatal hippocampal neurons maintained in culture for 4-7 days. A glass coverslip containing the culture was transferred to the recording chamber (Warner Instrument Corp., Hamden, Conn.) mounted on the stage of an inverted microscope (Nikon, Kingston, UK). The recording chamber contained 1-2 ml extracellular solution (145 mM NaCl, 5.4 mM KCl, 10 mM HEPES, 0.8 mM MgCl2, 1.8 CaCl2, 10 mM glucose and 30 mM sucrose, adjusted to pH 7.4 with 1 M NaOH) and was constantly perfused at a rate of 1 ml/min. Recordings were performed at room temperature (20-22° C.) using an Axopatch 200B amplifier (Axon Instruments Ltd., Foster City, Calif.). Data acquisition and analysis was performed using Signal software (Cambridge Electronic Design Ltd., Cambridge, UK). Pipettes were manufactured from GC120F-10 glass (Harvard Apparatus, Edenbridge UK) using a model P-87 electrode puller (Sutter Instruments Co., Novarto, Calif.). The patch electrodes had typical resistances of between 3-5 MΩ when filled with intracellular solution (140 mM potassium gluconate, 20 mM HEPES, 1.1 mM EGTA, 5 mM phosphocreatine, 3 mM ATP, 0.3 mM GTP, 0.1 mM CaCl2, 5 mM MgCl2, adjusted to pH 7.4 with 1 M KOH).
Cells were voltage clamped at a holding potential of −60 mV and glutamate (0.5 mM) was applied using a 12 channel semi-rapid drug application device (DAD-12. Digitimer Ltd., Welwyn Garden city, UK). The agonist glutamate was applied for 1 s every 30 s. […] Between applications saline flowed to clear any dead volume in the system. For each application steady-state currents were plotted from the difference in baseline and steady state current and averaged over 300 ms.
Two solutions of the compound in extracellular solution were made up, one with glutamate and one without. […]

Mice = test: Inhibition of amphetamine-induced hyperlocomotion; format: in vivo, mouse; conditions: drug sc 30 minutes before 1.5 mg/kg d-amphetamine sulphate sc, locomotor activity measured for 60 minutes
Method: Mice were injected sc with drug treatment or vehicle control. 30 Minutes later mice were injected sc with 1.5 mg/kg d-amphetamine sulphate or saline and immediately placed in infra red locomotor boxes where locomotor activity (long duration beam breaks of two adjacent beams) and stereotypic behaviour (repetitive short-duration beam breaks) were measured for a period of 60 minutes. The experiment was analysed using a 3-Way ANOVA with experimental session, infra red locomotor boxes and treatment as factors, and in the case of treatment, significant effects were followed up using a Tukey (HSD) test.

Rats = test: Differential reinforcement of low rates of responding, 72 seconds (DRL72); format: in vivo, rat; conditions: intraperitoneal route 30 minutes before 60 minute test session
Method: Rats are pretrained in a standard operant chamber to perform a DRL72 procedure according to Andrews et al (Andrews J S, Jansen J H M, Linders S, Princen A, Drinkenburg WHIM, Coenders C J H and Vossen J H M (1994). Effects of imipramine and mirtazapine on operant performance in rats. Drug Development Research, 32, 58-66). The test session lasts for 60 minutes with no limit to the number of trials. Each trial begins with the stimulus light on above the active lever. A response on the lever only results in delivery of a pellet if 72 seconds has elapsed. A response on the lever before 72 seconds has elapsed resets the timer and is not rewarded. The number of pellets earned and the number of lever presses is recorded and used to calculate an efficiency score. Test compounds are administered via the intraperitoneal route 30 minutes before the start of the test session. Antidepressants increase the number of pellets earned and decrease the number of lever presses.

Row | Compound | % Increase in steady state current at 10 μM (AMPA receptor) | Inhibition of amphetamine induced hyperlocomotion (Mice) | DRL72 operant performance (pellets earned, lever presses): antidepressant like profile (Rats)
1 | O=C1c2sccc2OC[C@@H]2CCCN12 [Example 1] | 32% | inhibited amphetamine induced hyperlocomotion | 
2 | O=C1c2ccc(C(F)(F)F)nc2OC[C@@H]2CCCN12 [Example 2B, (S)-8-trifluoromethyl-2,3,11,11a-tetrahydro-1H,5H-pyrrolo[2,1-c]pyrido[3,2-f][1,4]-oxazepine-5-one] | 21% |  | 
3 | O=C1c2ccc(C(F)(F)F)nc2OC[C@H]2CCCN12 [Example 2C, (R)-8-trifluoromethyl-2,3,11,11a-tetrahydro-1H,5H-pyrrolo[2,1-c]pyrido[3,2-f][1,4]-oxazepine-5-one] | 19% |  | 
4 | Cc1ccc2c(n1)OCC1CCCN1C2=O.Cl [Example 3, (S)-8-Methyl-2,3,11,11a-tetrahydro-1H,5H-pyrrolo[2,1-c]pyrido[3,2-f][1,4]oxazepine-5-one Hydrochloride Salt] | 12% |  | 
5 | O=C1c2ccc(Cl)nc2OC[C@@H]2CCCN12 [Example 4A, (S)-8-Chloro-2,3,11,11a-tetrahydro-1H,5H-pyrrolo[2,1-c]pyrido[3,2-f][1,4]oxazepine-5-one] | 16% |  | 
6 | O=C1c2ccc(Cl)nc2OC[C@H]2CCCN12 [Example 4B, (R)-8-Chloro-2,3,11,11a-tetrahydro-1H,5H-pyrrolo[2,1-c]pyrido[3,2-f][1,4]oxazepine-5-one] | 29% |  | 
7 | O=C1c2cc(Cl)sc2OC[C@@H]2CCCN12 [Example 5, (S)-7-Chloro-2,3,10,10a-tetrahydro-1H,5H-pyrrolo[2,1-c]thieno[3,2-f][1,4]oxazepine-5-one] | 16% |  | 
8 | O=C1c2cc(Cl)sc2OC[C@H]2CCCN12 [Example 6A, (R)-7-Chloro-2,3,10,10a-tetrahydro-1H,5H-pyrrolo[2,1-c]thieno[3,2-f][1,4]oxazepine-5-one] | 20% |  | 
9 | (+)-6,6a,7,8,9,10-hexahydro-12H-pyrido[2,1-c]pyrido[3,2-f][1,4]oxazepine-12-one [Example 4D] | 13% |  | 
10 | (S)-2,3,11,11a-tetrahydro-1H,5H-pyrrolo[2,1-c]pyrido[3,2-f][1,4]oxazepine-5-one | 22% | inhibited amphetamine induced hyperlocomotion | antidepressant like profile
11 | (S)-8-Methoxy-2,3,11,11a-tetrahydro-1H,5H-pyrrolo[2,1-c]Pyrido[3,2-f][1,4]oxazepine-5-one [Example 7] | 22% |  | 

— patent publication US8034804B2 (N.V. Organon, priority 2001, dated 2011)
